System: N9 NA of A/Shanghai/2/2013 (SH13) (H7N9), virus A/Shanghai/2/2013 (H7N9)-PR8-IDCDC-RG32A
Assay type: biochemical, Influenza A virus (A/Shanghai/2/2013(H7N9))

CC(=O)N[C@H]1[C@H]([C@H](O)[C@H](O)CO)OC(C(=O)O)=C[C@@H]1N=C(N)N [zanamivir]
IC50: 7.6 nM

Source: article PMC6941661 (Cell host & microbe, 2019)
